The results in this text go back to patent US20220339094A1, “NOVEL SKIN CARE COMPOSITION” (BEIERSDORF AG, priority 2019, published 2022).

The subject of one experiment is C. acnes strain K8. Description: Minimum inhibitory concentration (MIC) of cosmetic excipients, strain K8. It counts as cell-based, Cutibacterium acnes. Particulars: % w/vol, anaerobic 3 days at 37° C, visual growth scoring. Here is the method:
(§1) In microbiology, the MIC is the lowest concentration of a chemical which prevents visible growth of bacterium. The resulted MIC value depends both on the microorganism and the test compound. The MIC is determined by preparing concentrations series of the test compound in vitro, incubating the solutions with the separate batches of cultured bacteria, and measuring the results using agar dilution or broth microdilution. For the experiments with C. acnes strains C3 and K8, media comprising yeast extract soy peptone and dextrose were used. The MIC is determined by turbidity.
(§2) A total of 125 cosmetic excipients were tested for their compatibility with C. acnes strains C3 and K8. Hydrophilic compounds were tested in a 96-well plate liquid broth format, poorly soluble compounds were pre-dissolved in DMSO before dilution in liquid broth and hydrophobic or solid compounds were tested in an agar well diffusion test assay. The different dilutions of the test excipients in media were prepared in Falcon tubes and then distributed in a deep well plate using a multistepper. Each well received 1.2 ml and was subsequently inoculated with 120 μl of C. acnes bacteria suspension (strain C3 and K8). From the deep well plate 200 μl were transferred in each well of a clear 96 well replicate plate. The leftover was discarded. The plates were then incubated anaerobically for 3 days at 37° C. Following incubation, the test plates were visually examined and wells were scored for growth or complete growth inhibition to define the minimum inhibitory concentration.
(§3) These excipients are listed in the below table with their compatibility values for C. acnes strains C3 and K8. The compatibility values represent the MIC value of the listed ingredients with the tested C. acnes strains. At this concentration [% w/vol] the tested compound starts interfering with the growth of the tested strains. The compounds can be used in formulations at concentrations below this concentration.

In a further experiment the test system is C. acnes strain C3. Description: Minimum inhibitory concentration (MIC) of cosmetic excipients, strain C3. Format: cell-based, Cutibacterium acnes. The note with it: % w/vol, anaerobic 3 days at 37° C, visual growth scoring. Here is the method: as §1, §2, §3

For `O=C(O)CC(O)(CC(=O)O)C(=O)O` [citric acid], the “COMPATABILITY VALUE K8 (MIC)” value with C. acnes strain K8 was 0.08%.
Take `CC(CO)CO` [methylpropanediol]: in the experiment on C. acnes strain C3, the “COMPATABILITY VALUE C3 (MIC)” value was found to be 4.00%. In addition, in the experiment on C. acnes strain K8, the “COMPATABILITY VALUE K8 (MIC)” value worked out at 4.00%.
With tocopherol, the “COMPATABILITY VALUE C3 (MIC)” value in the experiment with C. acnes strain C3 came to 1.50%. Moreover, in the experiment on C. acnes strain K8, the “COMPATABILITY VALUE K8 (MIC)” value is 1.50%.
ethylhexyl cocoate: the “COMPATABILITY VALUE C3 (MIC)” value with C. acnes strain C3 is on record as 10.00%. The “COMPATABILITY VALUE K8 (MIC)” value in the experiment with C. acnes strain K8 is reported as 10.00%.
Regarding `CCCCCCC(O)CO` (stereo not drawn) [caprylyl glycol], the “COMPATABILITY VALUE C3 (MIC)” value in the experiment on C. acnes strain C3 was found to be 0.18%. Moreover, the “COMPATABILITY VALUE K8 (MIC)” value in the experiment on C. acnes strain K8 worked out at 0.18%.
Regarding peg-40 hydrogenated castor oil, the “COMPATABILITY VALUE C3 (MIC)” value in the experiment on C. acnes strain C3 is 1.00%. Moreover, the “COMPATABILITY VALUE K8 (MIC)” value with C. acnes strain K8 worked out at 1.00%.
On to `CC(=O)Oc1c(C)c(C)c2c(c1C)CCC(C)(CCC[C@H](C)CCC[C@H](C)CCCC(C)C)O2` (stereo partly drawn) [tocopheryl acetate], for which the “COMPATABILITY VALUE K8 (MIC)” value in the experiment with C. acnes strain K8 is listed as 1.00%.
